Reference: paper PMC7529893, “Structural basis for substrate recognition and chemical inhibition of oncogenic MAGE ubiquitin ligases” (Nature Communications, 2020)

biological target: T1, MAGE-A11:PCF11 interaction (GST-MAGE-A11 and FAM-PCF11_4) (Homo sapiens, UniProt P43364); experiment: TR-FRET primary / single point screen at 15 µM; type: binding; details: single point TR-FRET screening of 797 quinoline compounds against MAGE-A11:PCF11
T1 construct: GST-MAGE-A11 MHD (human MAGE-A11 MHD amino acid 218-429); made in house; host or cells: E. coli BL21(DE3)
T1 sequence (P43364 218-429): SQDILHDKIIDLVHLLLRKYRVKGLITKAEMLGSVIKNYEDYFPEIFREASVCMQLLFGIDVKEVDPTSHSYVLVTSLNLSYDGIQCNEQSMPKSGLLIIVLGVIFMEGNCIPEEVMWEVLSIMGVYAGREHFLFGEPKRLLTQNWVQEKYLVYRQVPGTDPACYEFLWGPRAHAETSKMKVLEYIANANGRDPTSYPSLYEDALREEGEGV
Procedure, shortened: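 TR-FRET 520/490 nm emission ratio was read after 90 min at room temperature. Wells held 5 nM GST-MAGE-A11, 5 nM Tb-anti-GST, 200 nM FAM-PCF11_4 and 15 µM compound in Tris pH 7.5 buffer with MgCl2, BSA and DTT. %Inhibition was scaled to DMSO and minus-MAGE-A11 controls.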

Row | Compound | percent inhibition (TR-FRET)
1 | Fc1ccc(CN(CCCCNc2ccnc3cc(Cl)ccc23)Cc2ccccc2)cc1F [SJ000361197] | 26.0931
2 | Fc1ccccc1CN(CCCCNc1ccnc2cc(Cl)ccc12)Cc1ccccc1 [SJ000361198] | 20.7772
3 | Fc1cccc(CN(CCCCNc2ccnc3cc(Cl)ccc23)Cc2ccccc2)c1 [SJ000361199] | 28.3389
4 | O=[N+]([O-])c1ccccc1CN(CCCCNc1ccnc2cc(Cl)ccc12)Cc1ccccc1 [SJ000361200] | 17.2064
5 | O=[N+]([O-])c1cccc(CN(CCCCNc2ccnc3cc(Cl)ccc23)Cc2ccccc2)c1 [SJ000361201] | 24.3707
6 | O=[N+]([O-])c1ccc(CN(CCCCNc2ccnc3cc(Cl)ccc23)Cc2ccccc2)cc1 [SJ000361202] | 15.2459
7 | O=C(O)c1ccccc1CN(CCCCNc1ccnc2cc(Cl)ccc12)Cc1ccccc1 [SJ000361203] | 4.099
8 | Clc1ccc2c(NCCCCN(Cc3ccccc3)Cc3cccc4ccccc34)ccnc2c1 [SJ000361204] | 26.4906
9 | Clc1ccc2c(NCCCCN(Cc3ccccc3)Cc3ccc4ccccc4c3)ccnc2c1 [SJ000361205] | 24.6356
10 | Cc1cccc(CN(CCCCNc2ccnc3cc(Cl)ccc23)Cc2ccccc2)c1 [SJ000361206] | 29.5379
11 | Clc1ccc(CN(CCCCNc2ccnc3cc(Cl)ccc23)Cc2ccccc2)c(Cl)c1 [SJ000361207] | 35.4339
12 | CCC(C)CN(CCCCNc1ccnc2cc(Cl)ccc12)Cc1ccccc1 (stereo not shown) [SJ000361208] | 35.3677
13 | Cc1ccc(C)c(CN(CCCCNc2ccnc3cc(Cl)ccc23)Cc2ccccc2)c1 [SJ000361209] | 32.6515
14 | COc1cccc(CN(CCCCNc2ccnc3cc(Cl)ccc23)Cc2ccccc2)c1 [SJ000361210] | 11.7175
15 | Clc1ccc2c(NCCCCN(CCc3ccccc3)Cc3ccccc3)ccnc2c1 [SJ000361211] | 23.3769
16 | CCCCCCN(CCCCNc1ccnc2cc(Cl)ccc12)Cc1ccccc1 [SJ000361212] | 23.5778
17 | CCCCCN(CCCCC)CC(=O)Nc1c2c(nc3ccccc13)CCC2 [SJ000487033] | -68.0728
18 | COC(=O)CN1CCN(c2cc(C)nc3ccccc23)C(C)C1=O (stereo not shown) [SJ000516812] | 3.503

Row | Compound | percent inhibition (TR-FRET)
19 | Clc1ccc2c(N3CCN(CCCN4CCN(c5ccnc6cc(Cl)ccc56)CC4)CC3)ccnc2c1 [SJ000518980] | -2.9894
20 | Cc1[nH]cnc1CN(CCCCNc1ccnc2cc(Cl)ccc12)Cc1ccccc1 [SJ000520428] | 15.1059
21 | COC(=O)CCCCCN(CCCCNc1ccnc2cc(Cl)ccc12)Cc1ccccc1 [SJ000520432] | 23.5757
22 | Clc1ccc2c(NCCCCN(Cc3ccccc3)Cc3ccc4[nH]ccc4c3)ccnc2c1 [SJ000520434] | 69.4381
23 | Cn1ccnc1CN(CCCCNc1ccnc2cc(Cl)ccc12)Cc1ccccc1 [SJ000520435] | 5.888
24 | Clc1ccc2c(NCCCCN(Cc3ccccc3)Cc3cccc4c3OCO4)ccnc2c1 [SJ000520436] | 21.6545
25 | COc1ccc(CN(CCCCNc2ccnc3cc(Cl)ccc23)Cc2ccccc2)cc1F [SJ000520438] | 13.1455
26 | Cn1cc(CN(CCCCNc2ccnc3cc(Cl)ccc23)Cc2ccccc2)c2ccccc21 [SJ000520440] | -14.3502
27 | COc1ccc(F)c(CN(CCCCNc2ccnc3cc(Cl)ccc23)Cc2ccccc2)c1 [SJ000520441] | 14.5458
28 | CCc1ccc(CN(CCCCNc2ccnc3cc(Cl)ccc23)Cc2ccccc2)cc1 [SJ000520443] | 29.9089
29 | COc1ccc(C(F)(F)F)cc1CN(CCCCNc1ccnc2cc(Cl)ccc12)Cc1ccccc1 [SJ000520444] | 31.8155
30 | Clc1ccc2c(NCCCCN(Cc3ccccc3)Cc3csc4ccccc34)ccnc2c1 [SJ000520446] | 33.9765
31 | COc1ccc(OC(F)(F)F)cc1CN(CCCCNc1ccnc2cc(Cl)ccc12)Cc1ccccc1 [SJ000520447] | 26.6585
32 | Clc1ccc2c(NCCCCN(Cc3ccccc3)Cc3nccs3)ccnc2c1 [SJ000520448] | -1.698
33 | Cc1ccc(F)cc1CN(CCCCNc1ccnc2cc(Cl)ccc12)Cc1ccccc1 [SJ000520449] | 42.3236
34 | FC(F)(F)Oc1ccc(CN(CCCCNc2ccnc3cc(Cl)ccc23)Cc2ccccc2)cc1 [SJ000520451] | 39.8725
35 | Clc1ccc2c(NCCCCN(Cc3ccccc3)Cc3cccnc3Br)ccnc2c1 [SJ000520453] | 2.377

same assay, conditions: single point TR-FRET screening of quinoline compounds against MAGE-A11:PCF11; 15 µM

Row | Compound | percent inhibition (TR-FRET)
36 | CCCN(CCC)CCCNc1ccnc2cc(C(F)(F)F)ccc12 [SJ000361250] | 15.6779
37 | CCCN(CCCNc1ccnc2cc(C(F)(F)F)ccc12)Cc1ccncc1 [SJ000361251] | 17.4864
38 | CCCN(CCCNc1ccnc2cc(C(F)(F)F)ccc12)Cc1ccccn1 [SJ000361252] | 15.1623
39 | CCCN(CCCNc1ccnc2cc(C(F)(F)F)ccc12)Cc1cccs1 [SJ000361253] | 19.5346
40 | CCCN(CCCNc1ccnc2cc(C(F)(F)F)ccc12)Cc1ccsc1 [SJ000361254] | 28.8755
41 | CCCN(CCCNc1ccnc2cc(C(F)(F)F)ccc12)Cc1ccc[nH]1 [SJ000361255] | 30.6641
42 | CCCN(CCCNc1ccnc2cc(C(F)(F)F)ccc12)Cc1ccccc1 [SJ000361256] | 28.8195
43 | CCCN(CCCNc1ccnc2cc(C(F)(F)F)ccc12)Cc1ccccc1O [SJ000361257] | 26.5044
44 | CCCN(CCCNc1ccnc2cc(C(F)(F)F)ccc12)Cc1ccc(C)s1 [SJ000361258] | 19.0825
45 | CCCN(CCCNc1ccnc2cc(C(F)(F)F)ccc12)Cc1ccccc1C(F)(F)F [SJ000361259] | 4.988
46 | CCCN(CCCNc1ccnc2cc(C(F)(F)F)ccc12)Cc1cccc(OC)c1O [SJ000361260] | 15.4935
47 | CCCN(CCCNc1ccnc2cc(C(F)(F)F)ccc12)Cc1ccc(C)o1 [SJ000361261] | 23.9069
48 | CCCN(CCCNc1ccnc2cc(C(F)(F)F)ccc12)Cc1c(F)cccc1OC [SJ000361262] | 29.228
49 | CCCN(CCCNc1ccnc2cc(C(F)(F)F)ccc12)Cc1cc(OC)ccc1O [SJ000361263] | 25.2582
50 | CCCN(CCCNc1ccnc2cc(C(F)(F)F)ccc12)Cc1c(C)cc(C)cc1C [SJ000361264] | 19.9321
51 | CCCN(CCCNc1ccnc2cc(C(F)(F)F)ccc12)Cc1ccco1 [SJ000361265] | 24.1057
52 | CCCN(CCCNc1ccnc2cc(C(F)(F)F)ccc12)CC1CC1 [SJ000361266] | 48.1534
53 | CCCN(CCCNc1ccnc2cc(C(F)(F)F)ccc12)Cc1ccoc1 [SJ000361267] | 28.5489

Row | Compound | percent inhibition (TR-FRET)
54 | CCCN(CCCNc1ccnc2cc(C(F)(F)F)ccc12)CC1CCCCC1 [SJ000361268] | 33.314
55 | CCCN(CCCNc1ccnc2cc(C(F)(F)F)ccc12)CC(CC)CC [SJ000361269] | 30.6641
56 | CCCN(CCCNc1ccnc2cc(C(F)(F)F)ccc12)Cc1ccc2c(c1)OCO2 [SJ000361270] | 5.623
57 | CCCCCN(CCC)CCCNc1ccnc2cc(C(F)(F)F)ccc12 [SJ000361271] | 30.9303
58 | CCCN(CCCNc1ccnc2cc(C(F)(F)F)ccc12)Cc1ccc(F)c(F)c1 [SJ000361272] | 13.8395
59 | CCCN(CCCNc1ccnc2cc(C(F)(F)F)ccc12)Cc1ccc(OC)cc1 [SJ000361273] | 22.8956
60 | CCCN(CCCNc1ccnc2cc(C(F)(F)F)ccc12)Cc1ccccc1F [SJ000361274] | 19.2187
61 | COC(=O)CCCCCN(CCCNc1ccnc2cc(Cl)ccc12)Cc1ccccc1 [SJ000520429] | 17.1364
62 | Clc1ccc2c(NCCCN(Cc3ccccc3)Cc3ccc4[nH]ccc4c3)ccnc2c1 [SJ000520430] | 66.4274
63 | Cn1ccnc1CN(CCCNc1ccnc2cc(Cl)ccc12)Cc1ccccc1 [SJ000520431] | 15.361
64 | Clc1ccc2c(NCCCN(Cc3ccccc3)Cc3c[nH]c4ccccc34)ccnc2c1 [SJ000520433] | 40.1907
65 | COc1ccc(CN(CCCNc2ccnc3cc(Cl)ccc23)Cc2ccccc2)cc1F [SJ000520437] | 23.6478
66 | Cn1cc(CN(CCCNc2ccnc3cc(Cl)ccc23)Cc2ccccc2)c2ccccc21 [SJ000520439] | -9.311
67 | CCc1ccc(CN(CCCNc2ccnc3cc(Cl)ccc23)Cc2ccccc2)cc1 [SJ000520442] | 18.8867
68 | COc1ccc(F)c(CN(CCCNc2ccnc3cc(Cl)ccc23)Cc2ccccc2)c1 [SJ000520445] | 4.762
69 | COc1ccc(C(F)(F)F)cc1CN(CCCNc1ccnc2cc(Cl)ccc12)Cc1ccccc1 [SJ000520450] | 23.1782
70 | COc1ccc(OC(F)(F)F)cc1CN(CCCNc1ccnc2cc(Cl)ccc12)Cc1ccccc1 [SJ000520452] | 20.4443
